Results reported in patent US11453640B2, “Small molecules for disrupting the super elongation complex and inhibiting transcription elongation for cancer therapy” (NORTHWESTERN UNIVERSITY, priority 2018, dated 2022).

How the values were obtained:
[1] = system: heat shock responsive genes in Drosophila S2 cells; assay: Heat shock induction in Drosophila S2 cells; assay type: cell-based; details: 20 μM
Procedure: FIG. 5. SEC inhibitors block transcription elongation in SEC-dependent rapid response models. (A-B) Genome browser tracks of Pol II ChIP-seq at the FOS, HSPD1 and HSPE1 genes after 1 hr heat shock of HCT-116 cells treated with vehicle (DMSO) or the indicated SEC inhibitors. HCT-116 cells were pretreated with inhibitors for 5 hr at 37° C. before exchanging medium with conditioned 42° C. medium. Dark and light colors indicate the 37 and 42° C. conditions, respectively. (C) Genome-wide identification of heat shock-induced genes with fold change of reads per million in gene bodies and pausing index. Red dots are the 136 heat shock-induced genes according to Pol II signals (fold change of reads per million in gene bodies >1.5 and pausing index decreased >1.5-fold in the DMSO-treated condition). […] Box plot analysis depicts the log2 fold changes of reads per million in gene bodies (E) (y axis) after heat shock with pretreatment of vehicle or SEC inhibitors. […] S2 cells were heat shocked at 37° C. with and without 20 μM SEC inhibitors for 6 hr (left panel). The statistical analysis was performed with the Wilcoxon test.
Heat Shock Induction. Heat shock of mammalian cells was performed using ˜70-80% confluent HCT-116 cells by adding pre-heated (42° C.) conditioned media collected from identically growing cells (Mahat et al., 2016b). The heat shock cells were incubated at 42° C. for 1 hour. […]

[2] = system: Tat-induced HIV genome activation in J-Lat 6.3 cells; assay: Tat-induced HIV genome activation in J-Lat 6.3 cells (GFP, FACS); assay type: cell-based, human; details: 20 μM, 10 nM PMA, 17 hr
Procedure: FIG. 12, related to FIG. 5. SEC inhibitors block transcription elongation in SEC-dependent rapid response models. […] (B) Gene Ontology analysis of the 136 identified heat shock-induced genes in HCT-116 cells. (C) Workflow of Tat-induced HIV genome activation in J-Lat 6.3 cells. J-Lat 6.3 cells contain an integrated copy of the HIV genome that has GFP replacing HIV nef and could be activated by Phorbol-12-Myristate-13-Acetate (PMA). J-Lat 6.3 cells were treated with vehicle or 20 μM SEC inhibitor along with PMA to activate the HIV genome transcription, which could be monitored by flow cytometry analysis. (D-E) SEC inhibitors block Tat-induced HIV genome activation in J-Lat 6.3 cells. (D) FACS analysis of J-Lat 6.3 cells treated with 10 nM PMA and SEC inhibitors for 17 hr. […] Unpaired two-way ANOVA was used to compare the groups between DMSO and SEC inhibitors. ***, p<0.001. Data are represented as Mean+/−SD. […]
Induction of J-Lat 6.3 Cells. […] Cells were washed in PBS and GFP fluorescence was measured with a FACSVantage instrument (Becton Dickinson, San Jose, Calif.). […] A two-parameter analysis to distinguish GFP-derived fluorescence from background fluorescence was used: GFP was measured in FL1 and cellular autofluorescence was monitored in FL2. The percentage of GFP-positive cells was calculated based on live cells (Jordan et al., 2003).

MYC = assay: mRNA-seq of 293T cells after 24 hr treatment; assay type: cell-based, human
Excerpt: (§1) FIG. 6. SEC disruption targets MYC and MYC target genes. (A-B) Venn diagram of deregulated genes in 293T cells by KL-1 and KL-2. […] (C) Heat map showing the expression changes in response to SEC inhibitors, with differentially expressed canonical MYC targets, RNA splicing factors, and core SNRP assembly genes highlighted. […] Each cluster is represented by different colors and a circle node denotes each enriched term. (E) MA plots of RNA splicing and Hallmark MYC target genes in KL-2 treated, AFF1 and AFF4 co-depletion, and ELL2-depleted cells. […] The MYC genes, the PRMT5 gene, and genes encoding SEC components are denoted as red squares. (F) Western analysis of MYC protein levels in the MYC lowly expressed small cell lung cancer cell line […] and MYC-amplified small cell lung cancer cell line H2171. […] The SEC and MYC peaks were determined by MACS with a p-value cutoff at 1E-5. […] Both cell lines were treated with increasing concentrations of KL-1 and KL-2 for 3 days and the cell proliferation was measured with CellTiter-Glo luminescent cell viability assay (Promega) (n=3-6).
RNA-seq Analysis. […] Exonic reads were assigned to specific genes from Ensembl release 75 using Bioconductor package GenomicRanges countOverlaps. […] The total number of uniquely mapped reads was provided to edgeR for the calcNormFactors normalization rather than the default column sums. […]

H2171 and SW1271 cells = assay: CellTiter-Glo cell proliferation of small cell lung cancer cells; assay type: cell-based, human; details: 3 days, increasing concentrations
Excerpt: as §1, with “H2171. (G) Gained SEC occupancy at the MYC binding sites in MYC highly expressed H2171 cells. Genome browser tracks of MYC and SEC occupancy around the PRMT5 gene in SW1271 and H2171 cells are shown. (H) ChIP-seq analysis of MYC binding peaks in SW1271 and H2171 cells.” for “H2171.”

SMILES: COc1cccc(C(=O)CC(=O)C(=O)Nc2cc(Cl)ccc2C)c1 [KL-1, N-(5-chloro-2-methylphenyl)-4-oxo-4-(3-methoxyphenyl)-2-oxobutanamide]
- heat shock induction of the 215 heat shock responsive genes [1]: attenuated heat shock induction
- GFP expression after PMA induction [2]: strong inhibition of GFP expression
- MYC expression (MYC): led to decreased MYC expression
- sensitivity of high MYC expressing H2171 cells versus low MYC expressing SW1271 cells (H2171 and SW1271 cells): more sensitive
